Reference: BindingDB's records for doi:10.1021/jm401292m (Mcgill University, 2014)

Assay: Antagonist activity at OXE receptor (unknown origin) expressed in neutrophils assessed as inhibition of 5-oxo-ETE-induced cell migration after 2 hrs by hematoxylin/chromotrope 2R staining-based microscopic analysis

## CCCCCCc1c(C(=O)CC(C)CC(=O)O)c2cc(Cl)ccc2n1C (stereo unspecified)
  IC50: 454 nM
